The record followed here is US9278981B2, “Compounds and compositions for inhibiting the activity of ABL1, ABL2 and BCR-ABL1” (Novartis AG, priority 2012, dated 2016).

Assay [1] concerns the target T1, ABL1 (64-515) (Homo sapiens (Human), UniProt P00519). Description: Radio ABL1 (64-515) assay (radiometric filter-binding). Format: biochemical.
Assay [2] addresses T1, ABL1 (64-515). Description: Caliper ABL1 (64-515) assay (microfluidic mobility shift). The assay is classed as biochemical.
Protocol: Expression and purification of human ABL was performed using standard expression purification procedures. […] The His-ABL was expressed in E. coli BL21 (DE3) and the ABL proteins were isolated by Ni-affinity on a Ni-NTA column (Qiagen). The His-tag was removed by PreScission protease (GE Healthcare) and the non-phosphoprylated ABL further purified on a Mono Q HR 10/10 (GE Healthcare, mono-phosphorylated ABL is about 10-20% of total ABL protein) and HiLoad 16/60 Superdex 200 size exclusion column (GE Healthcare).
All assays were performed in 384-well microtiter plates. Each assay plate contained 8-point serial dilutions for 40 test compounds, as well as four 8-point serial dilutions of staurosporine as a reference compound, plus 16 high and 16 low controls. Liquid handling and incubation steps were done on a Thermo CatX workstation equipped with Innovadyne Nanodrop Express. Between pipetting steps, tips were cleaned in wash cycles using wash buffer.
The assay plates were prepared by addition of 50 nL per well of compound solution in 90% DMSO. […] Plates with terminated kinase reactions were transferred to the Caliper LC3000 workstations for reading. Phosphorylated and unphosphorylated peptides were separated using the Caliper microfluidic mobility shift technology. Briefly, samples from terminated kinase reactions were applied to the chip. Analytes are transported through the chip by constant buffer flow and the migration of the substrate peptide is monitored by the fluorescence signal of its label. Phosphorylated peptide (product) and unphosphorylated peptide (substrate) are separated in an electric field by their charge/mass ratio. Kinase activities were calculated from the amounts of formed phospho-peptide. IC50 values were determined from percent inhibition values at different compound concentrations by non-linear regression analysis.
Test compounds were dissolved in DMSO (10 mM) and transferred into 1.4 mL flat bottom or V-shaped Matrix tubes carrying a unique 2D matrix. The stock solutions were stored at +2° C. if not used immediately. For the test procedure the vials were defrosted and identified by a scanner whereby a working sheet was generated that guided the subsequent working steps.
Compound dilutions were made in 96-well plates. This format enabled the assay of maximally 40 individual test compounds at 8 concentrations (single points) including 4 reference compounds. The dilution protocol included the production of “pre-dilution plates”, “master plates” and “assay plates”.
Polypropylene 96-well plates were used as pre-dilution plates. […] All dilution steps were done on a HamiltonSTAR robot.
These plates were used directly for the assay which was performed in a total volume of 9.05 μL.

T1 sequence (P00519 64-515): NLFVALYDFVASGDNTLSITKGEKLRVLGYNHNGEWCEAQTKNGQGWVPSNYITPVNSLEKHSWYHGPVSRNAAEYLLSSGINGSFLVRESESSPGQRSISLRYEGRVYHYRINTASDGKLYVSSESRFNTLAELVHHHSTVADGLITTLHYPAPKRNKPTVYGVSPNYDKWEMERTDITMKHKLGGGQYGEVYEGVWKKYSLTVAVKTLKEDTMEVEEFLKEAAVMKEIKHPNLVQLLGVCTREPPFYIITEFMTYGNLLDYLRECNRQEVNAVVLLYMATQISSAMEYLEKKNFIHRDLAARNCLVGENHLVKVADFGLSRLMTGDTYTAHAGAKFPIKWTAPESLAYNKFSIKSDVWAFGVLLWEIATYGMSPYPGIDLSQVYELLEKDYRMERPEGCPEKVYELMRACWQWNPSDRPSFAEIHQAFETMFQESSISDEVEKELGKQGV

For `O=C(Nc1ccc(OC(F)(F)F)cc1)c1cnc(N2CC[C@@H](O)C2)c(-c2cnccc2F)c1` [Example 48, (R)-4′-Fluoro-2-(3-hydroxypyrrolidin-1-yl)-N-(4-(trifluoromethoxy)phenyl)-[3,3′-bipyridine]-5-carboxamide], the IC50 at ABL1 (64-515) [1] was found to be 4.2 nM; at ABL1 (64-515) [2] it was 0.8 nM.
Taken in the same sequence, the figures for `O=C(Nc1ccc(OC(F)(F)F)cc1)c1cnc(N2CC[C@@H](O)C2)c(-c2cc(F)cnc2F)c1` [Example 49, (R)-2′,5′-Difluoro-2-(3-hydroxypyrrolidin-1-yl)-N-(4-(trifluoromethoxy)phenyl)-[3,3′-bipyridine]-5-carboxamide] were 5 nM and 3.5 nM.
With `O=C(Nc1ccc(OC(F)(F)F)cc1)c1cnc(N2CC[C@@H](O)C2)c(-c2cncc(Cl)c2)c1` [Example 50, (R)-5′-Chloro-2-(3-hydroxypyrrolidin-1-yl)-N-(4-(trifluoromethoxy)phenyl)-[3,3′-bipyridine]-5-carboxamide], the IC50 on ABL1 (64-515) [1] turned out to be 3 nM; on ABL1 (64-515) [2], 1.1 nM.
Take `O=C(Nc1ccc(OC(F)(F)F)cc1)c1cnc(N2CC[C@@H](O)C2)c(-c2ccc(C(F)(F)F)nc2)c1` [Example 51, (R)-2-(3-Hydroxypyrrolidin-1-yl)-N-(4-(trifluoromethoxy)phenyl)-6′-(trifluoromethyl)-[3,3′-bipyridine]-5-carboxamide]: the IC50 was less than 3 nM on ABL1 (64-515) [1] and 2.9 nM at ABL1 (64-515) [2].
Regarding `O=C(Nc1ccc(OC(F)(F)F)cc1)c1cnc(N2CC[C@@H](O)C2)c(-c2cnc(Cl)c(F)c2)c1` [Example 53, (R)-6′-Chloro-5′-fluoro-2-(3-hydroxypyrrolidin-1-yl)-N-(4-(trifluoromethoxy)phenyl)-[3,3′-bipyridine]-5-carboxamide], the results for the IC50 on ABL1 (64-515) [1] and at ABL1 (64-515) [2] were less than 3 nM and 0.4 nM, respectively.
The corresponding values for `N#Cc1cncc(-c2cc(C(=O)Nc3ccc(OC(F)(F)F)cc3)cnc2N2CC[C@@H](O)C2)c1` [Example 54, (R)-5′-Cyano-2-(3-hydroxypyrrolidin-1-yl)-N-(4-(trifluoromethoxy)phenyl)-[3,3′-bipyridine]-5-carboxamide] are 5 nM and 0.9 nM.
The corresponding values for `O=C(Nc1ccc(OC(F)(F)F)cc1)c1cnc(N2CC[C@@H](O)C2)c(-c2cccc(F)c2)c1` [Example 58, (R)-5-(3-Fluorophenyl)-6-(3-hydroxypyrrolidin-1-yl)-N-(4-(trifluoromethoxy)phenyl)nicotinamide] are 4 nM and 0.6 nM.
Taken in the same sequence, the figures for `CC(C)(O)c1cc(F)cc(-c2cc(C(=O)Nc3ccc(OC(F)(F)F)cc3)cnc2N2CC[C@@H](O)C2)c1` [Example 60, (R)-5-(3-Fluoro-5-(2-hydroxypropan-2-yl)phenyl)-6-(3-hydroxypyrrolidin-1-yl)-N-(4-(trifluoromethoxy)phenyl)nicotinamide] were 4 nM and 6 nM.
As to `O=C(Nc1ccc(OC(F)(F)F)cc1)c1cnc(N2CC[C@@H](O)C2)c(-c2cc(F)cc(F)c2)c1` [Example 61, (R)-5-(3,5-Difluorophenyl)-6-(3-hydroxypyrrolidin-1-yl)-N-(4-(trifluoromethoxy)phenyl)nicotinamide], the IC50 at ABL1 (64-515) [1] came to 4 nM; at ABL1 (64-515) [2], 0.5 nM.
The corresponding values for `COC(=O)c1cc(F)cc(-c2cc(C(=O)Nc3ccc(OC(F)(F)F)cc3)cnc2N2CC[C@@H](O)C2)c1` [Example 62, (R)-Methyl 3-fluoro-5-(2-(3-hydroxypyrrolidin-1-yl)-5-((4-(trifluoromethoxy)phenyl)carbamoyl)pyridin-3-yl)benzoate] are 4 nM and 2.1 nM.
Regarding `Nc1ncc(-c2cc(C(=O)Nc3ccc(OC(F)(F)F)cc3)cnc2N2CCCC2)cn1` [Example 68, 5-(2-Aminopyrimidin-5-yl)-6-(pyrrolidin-1-yl)-N-(4-(trifluoromethoxy)phenyl)nicotinamide], the results for the IC50 at ABL1 (64-515) [1] and at ABL1 (64-515) [2] were less than 3 nM and 0.9 nM, respectively.
Taken in the same sequence, the figures for `O=C(Nc1ccc(OC(F)(F)F)cc1)c1cnc(N2CCCC2)c(-c2ccc(CO)nc2)c1` [Example 69, 6′-(Hydroxymethyl)-2-(pyrrolidin-1-yl)-N-(4-(trifluoromethoxy)phenyl)-[3,3′-bipyridine]-5-carboxamide] were less than 3 nM and 0.5 nM.
Turning to `O=C(Nc1ccc(OC(F)(F)F)cc1)c1cnc(N2C[C@H](O)[C@@H](O)C2)c(-c2cccnc2)c1` [Example 70, 2-((3S,4S)-3,4-Dihydroxypyrrolidin-1-yl)-N-(4-(trifluoromethoxy)phenyl)-[3,3′-bipyridine]-5-carboxamide], the concentration for half-maximal inhibition (IC50) on ABL1 (64-515) [1] was less than 3 nM; on ABL1 (64-515) [2] it was 0.4 nM.
The corresponding values for `Cc1ccc(-c2cc(C(=O)Nc3ccc(OC(F)(F)F)cc3)cnc2N2CC[C@@H](CO)C2)cn1` [Example 77, (R)-2-(3-(hydroxymethyl)pyrrolidin-1-yl)-6′-methyl-N-(4-(trifluoromethoxy)phenyl)-[3,3′-bipyridine]-5-carboxamide] are 3 nM and 0.9 nM.
The corresponding values for `Cc1ccc(-c2cc(C(=O)Nc3ccc(OC(F)(F)F)cc3)cnc2N2CC[C@H](CO)C2)cn1` [Example 82, (S)-2-(3-(Hydroxymethyl)pyrrolidin-1-yl)-6′-methyl-N-(4-(trifluoromethoxy)phenyl)-[3,3′-bipyridine]-5-carboxamide] are less than 3 nM and 0.6 nM.
`O=C(Nc1ccc(OC(F)(F)F)cc1)c1cnc(N2CC[C@H](CO)C2)c(-c2ccc(CF)nc2)c1` [Example 84, (S)-6′-(Fluoromethyl)-2-(3-(hydroxymethyl)pyrrolidin-1-yl)-N-(4-(trifluoromethoxy)phenyl)-[3,3′-bipyridine]-5-carboxamide]: the IC50 is 3 nM at ABL1 (64-515) [1] and 1.1 nM on ABL1 (64-515) [2].
The corresponding values for `Cc1ncc(-c2cc(C(=O)Nc3ccc(OC(F)(F)F)cc3)cnc2N2CC[C@H](CO)C2)cc1F` [Example 87, (S)-5′-Fluoro-2-(3-(hydroxymethyl)pyrrolidin-1-yl)-6′-methyl-N-(4-(trifluoromethoxy)phenyl)-[3,3′-bipyridine]-5-carboxamide] are 6 nM and 0.7 nM.
The corresponding values for `O=C(Nc1ccc(OC(F)(F)F)cc1)c1cnc(N2CC[C@H](CO)C2)c(-c2ccc(Cl)nc2)c1` [Example 88, (S)-6′-Chloro-2-(3-(hydroxymethyl)pyrrolidin-1-yl)-N-(4-(trifluoromethoxy)phenyl)-[3,3′-bipyridine]-5-carboxamide] are 4 nM and less than 0.13 nM.
As for `O=C(Nc1ccc(OC(F)(F)F)cc1)c1cnc(N2CC[C@H](CO)C2)c(-c2cnc(Cl)c(F)c2)c1` [Example 89, (S)-6′-Chloro-5′-fluoro-2-(3-(hydroxymethyl)pyrrolidin-1-yl)-N-(4-(trifluoromethoxy)phenyl)-[3,3′-bipyridine]-5-carboxamide], the IC50 at ABL1 (64-515) [1] was less than 3 nM; at ABL1 (64-515) [2] it was 0.3 nM.
Taken in the same sequence, the figures for `N#Cc1cncc(-c2cc(C(=O)Nc3ccc(OC(F)(F)F)cc3)cnc2N2CC[C@H](CO)C2)c1` [Example 90, (S)-5′-Cyano-2-(3-(hydroxymethyl)pyrrolidin-1-yl)-N-(4-(trifluoromethoxy)phenyl)-[3,3′-bipyridine]-5-carboxamide] were less than 3 nM and 0.7 nM.
With `CN[C@H]1CCN(c2ncc(C(=O)Nc3ccc(OC(F)(F)F)cc3)cc2-c2cncnc2)C1` [Example 102, (S)-6-(3-(Methylamino)pyrrolidin-1-yl)-5-(pyrimidin-5-yl)-N-(4-(trifluoromethoxy)phenyl)nicotinamide], the IC50 at ABL1 (64-515) [1] is less than 3 nM; at ABL1 (64-515) [2], 2.3 nM.
On to `CC(C)(O)C1CCN(c2ncc(C(=O)Nc3ccc(OC(F)(F)F)cc3)cc2-c2cncnc2)C1` (centres unmarked) [Example 113, 6-(3-(2-Hydroxypropan-2-yl)pyrrolidin-1-yl)-5-(pyrimidin-5-yl)-N-(4-(trifluoromethoxy)phenyl)nicotinamide], for which the half-maximal inhibitory concentration (IC50) was less than 3 nM on ABL1 (64-515) [1] and 1.5 nM at ABL1 (64-515) [2].
The corresponding values for `O=C(Nc1ccc(OC(F)(F)F)cc1)c1cnc(N2CCC3(COC3)C2)c(-c2cncnc2)c1` [Example 116, 5-(Pyrimidin-5-yl)-6-(2-oxa-6-azaspiro[3.4]octan-6-yl)-N-(4-(trifluoromethoxy)phenyl)nicotinamide] are less than 3 nM and 3.5 nM.
On to `O=C(Nc1ccc(OC(F)(F)F)cc1)c1ccc(N2CCOC2=O)c(-c2cncnc2)c1` [Example 117, 4-(2-Oxooxazolidin-3-yl)-3-(pyrimidin-5-yl)-N-(4-(trifluoromethoxy)phenyl)benzamide], for which the values for the IC50 at ABL1 (64-515) [1] and on ABL1 (64-515) [2] were 0.4 nM and 5.5 nM, respectively.
Taken in the same sequence, the figures for `Cc1ccc(-c2cc(C(=O)Nc3ccc(OC(F)(F)F)cc3)cnc2N2CC(O)C2)cn1` [Example 127, 2-(3-Hydroxyazetidin-1-yl)-6′-methyl-N-(4-(trifluoromethoxy)phenyl)-[3,3′-bipyridine]-5-carboxamide] were 4 nM and 1.1 nM.
For the molecule `CC1(O)CN(c2ncc(C(=O)Nc3ccc(OC(F)(F)F)cc3)cc2-c2cccnc2)C1` [Example 130, 2-(3-Hydroxy-3-methylazetidin-1-yl)-N-(4-(trifluoromethoxy)phenyl)-[3,3′-bipyridine]-5-carboxamide], the IC50 at ABL1 (64-515) [1] is 3 nM; at ABL1 (64-515) [2], 1.2 nM.
Take `Cc1ccc(-c2cc(C(=O)Nc3ccc(OC(F)(F)F)cc3)cnc2N2CC(C)(O)C2)cn1` [Example 131, 2-(3-Hydroxy-3-methylazetidin-1-yl)-6′-methyl-N-(4-(trifluoromethoxy)phenyl)-[3,3′-bipyridine]-5-carboxamide]: the IC50 is 8.4 nM at ABL1 (64-515) [1] and 1.3 nM at ABL1 (64-515) [2].
The corresponding values for `CC1(O)CN(c2ncc(C(=O)Nc3ccc(OC(F)(F)F)cc3)cc2-c2cncc(F)c2)C1` [Example 132, 5′-Fluoro-2-(3-hydroxy-3-methylazetidin-1-yl)-N-(4-(trifluoromethoxy)phenyl)-[3,3′-bipyridine]-5-carboxamide] are less than 3 nM and 1.5 nM.
